Reference: PMC11687724, “Mechanism of connexin channel inhibition by mefloquine and 2-aminoethoxydiphenyl borate” (PLOS ONE, 2024)

How the values were obtained:
Cx43 = target: T1, Cx43 (Homo sapiens, UniProt P17302); test: cryo-EM of Cx43 GJC at […] Å; gap-FRAP in HEK293F cells; type: binding
T1 construct: gene GJA1; Cx43 gap junction channel

Cx32 [1] = target: T2, Cx32 (Homo sapiens, UniProt P08034); test: tryptophan fluorescence quenching; cryo-EM of Cx32 GJC at […] Å; dye uptake and gap-FRAP; type: binding; design: gene GJB1; purified Cx32 (gap junction channel)
T2 sequence (P08034 whole entry): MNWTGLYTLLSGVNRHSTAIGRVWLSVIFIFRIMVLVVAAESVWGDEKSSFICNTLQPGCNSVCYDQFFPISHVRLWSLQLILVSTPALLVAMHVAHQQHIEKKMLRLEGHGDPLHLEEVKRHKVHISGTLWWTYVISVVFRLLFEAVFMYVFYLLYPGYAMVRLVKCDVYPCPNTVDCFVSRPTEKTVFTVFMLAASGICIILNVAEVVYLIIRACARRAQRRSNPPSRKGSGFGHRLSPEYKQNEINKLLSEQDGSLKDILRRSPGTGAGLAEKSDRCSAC

Cx32 [2] = target: T2, Cx32; test: biochemical; design: gene GJB1

T1 sequence (P17302 2-382): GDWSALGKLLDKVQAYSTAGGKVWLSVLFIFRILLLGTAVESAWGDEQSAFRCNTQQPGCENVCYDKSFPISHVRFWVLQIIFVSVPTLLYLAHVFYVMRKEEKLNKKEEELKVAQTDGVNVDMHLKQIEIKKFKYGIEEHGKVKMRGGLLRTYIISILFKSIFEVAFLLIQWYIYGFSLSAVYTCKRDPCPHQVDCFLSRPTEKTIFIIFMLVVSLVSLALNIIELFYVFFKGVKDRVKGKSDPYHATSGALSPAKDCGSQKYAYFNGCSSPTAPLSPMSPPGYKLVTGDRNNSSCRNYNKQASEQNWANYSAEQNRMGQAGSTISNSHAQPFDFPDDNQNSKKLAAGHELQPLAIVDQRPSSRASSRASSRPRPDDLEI

Kd (Cx32 [1]) [µM] | Kd (Cx32 [2]) [nM] | Structure (SMILES) | cryo-EM of Cx43 GJC at 3.7 Å; gap-FRAP in HEK293F cells (Cx43)
43.1 | – | O[C@H](c1cc(C(F)(F)F)nc2c(C(F)(F)F)cccc12)[C@@H]1CCCCN1 (racemic) [MFQ, mefloquine] | a prominent additional density corresponding to MFQ was observed within the region corresponding to site M
– | 1050 | NCCOB(c1ccccc1)c1ccccc1 [2APB, 2-aminoethoxydiphenyl borate] | –
